Converted amounts (≈) assume the structure as drawn. Like-named read-outs stand apart in the source and are kept apart here.
Tests used:
[1] = test system: E. coli; assay: microbe, parasite or virus in culture; format: cell-based; settings: aerobic
Procedure: For MIC evaluations, the final results are expressed in chemical agent concentrations determined by analysis of the stock solution by HPLC (i.e., see Subsection IIIb).
The minimum inhibitory concentration (MIC) was determined aerobically in a 96 well-plate format. […] Media supplements were added according to levels reported in the Supplements Table, where specified. Overnight cultures of strains were grown in triplicate in 5 mL LB (with antibiotic where appropriate). A 1% (v/v) inoculum was introduced into a 5 ml culture of M9 minimal media.

[2] = test system: E. coli K12+pSMART-LC-Kan-cynTS; format: cell-based; settings: Escherichia coli, 24 h, read-out: Minimum inhibitory concentration (MIC) of 3-HP for E. coli K12+pSMART-LC-Kan-cynTS in M9 minimal media
Procedure: Overnight cultures of strains were grown in 5 ml LB (with antibiotic where appropriate) at 37° C. in a shaking incubator. A 1 v/v % was used to inoculate 10 mL of M9 minimal media. After the cells reached mid-exponential phase, the culture was diluted to an OD600 of 0.200. The cells were further diluted 1:20 and a 10 ul aliquot was used to inoculate each well (˜10^4 cells per well). […] The MIC endpoint is the lowest concentration of compound at which there was no visible growth.
Purified plasmid was retransformed into E. coli K12 by standard techniques and MIC measured as described in Example 37.

[3] = test system: C. necator (R. eutropha); assay: MIC evaluation of 3-HP, C. necator (R. eutropha) aerobic, FGN media, 96 well-plate, 24 h (Common Methods); format: cell-based; settings: for % Increase Over Control: supplements none, vs control, aerobic
Procedure: For MIC evaluations, the final results are expressed in chemical agent concentrations determined by analysis of the stock solution by HPLC (i.e., see Subsection IIIb). The minimum inhibitory concentration (MIC) was determined aerobically in a 96 well-plate format. […] Media supplements were added according to levels reported in Supplements Table, where specified. Overnight cultures of strains were grown in triplicate in 5 mL LB (with antibiotic where appropriate). […] The cells were further diluted 1:50 and a 10 μL aliquot was used to inoculate each well of a 96 well plate (˜10^4 cells per well) to total volume of 100 uL. […] Plates were incubated for 24 hours at 30 C.

[4] = 3-HP preparation: neutralisation of commercial 3-HP to pH 7.0, observation of insoluble matter; format: physicochemical
Excerpt: 3-HP was obtained from TCI America (Portland, Oreg.). Significant acrylic acid and 2-oxydipropionic contamination was observed via HPLC analysis. Samples were subsequently treated by diethyl ether extraction to remove acrylic acid and a portion of the 2-oxydipropionic contaminants. Samples were then neutralized with 10 M NaOH to a final pH of 7.0. […] The working stock solution was used for the selection and MIC evaluations in this example.
3-HP was obtained from TCI America (Portland, Oreg.). Significant acrylic acid and 2-oxydipropionic contamination was observed via HPLC analysis. Samples were subsequently treated by diethyl ether extraction to remove acrylic acid and a portion of the 2-oxydipropionic contaminants. Samples were then neutralized with 10 M NaOH to a final pH of 7.0. […] The working stock solution was used for the selection, growth rates and MIC evaluations in this example.

SMILES: O=C(O)CCO [3-HP, 3-hydroxypropionic acid]
- % Increase Over Control ([1]; strain BX_00304.0 (pSmart-LC-Kan-menA-ORF)): 40%
- % Increase Over Control ([1]; strain BX_00305.0 (pSmart-LC-Kan-pheA-C1)): 40%
- % Increase Over Control ([1]; strain BX_00307.0 (pSmart-LC-Kan-tyrA-C1)): 40%
- % Increase Over Control ([1]; strain BX_00309.0 (pSmart-LC-Kan-cynTS)): 40%
- % Increase Over Control ([1]; strain BX_00310.0 (pSmart-LC-Kan-glyA)): 40%
- % Increase Over Control ([1]; strain BX_00312.0 (pSmart-LC-Kan-serA)): 40%
- % Increase Over Control ([1]; strain BX_00313.0 (pSmart-LC-Kan-folD)): 20%
- % Increase Over Control ([1]; strain BX_00314.0 (pSmart-LC-Kan-aroE)): 40%
- % Increase Over Control ([1]; strain BX_00315.0 (pSmart-LC-Kan-aroKB C1)): 40%
- % Increase Over Control ([1]; strain BX_00317.0 (pSmart-LC-Kan-ilvA operon)): 40%
- % Increase Over Control ([1]; strain BX_00318.0 (pSmart-LC-Kan-cysM)): 40%
- % Increase Over Control ([1]; strain BX_00319.0 (pK223-aroH)): 50%
- % Increase Over Control ([1]; strain BX_00321.0 (pK223-ct-his-thrA)): 75%
- % Increase Over Control ([1]; strain BX_00322.0 (pJ61-speFED)): 40%
- % Increase Over Control ([1]; strain BX_00323.0 (pJ61-aroG)): 40%
- % Increase Over Control ([1]; strain BX_00324.0 (pJ61-thrA)): 40%
- % Increase Over Control ([1]; strain BX_00325.0 (pJ61-asd)): 40%
- % Increase Over Control ([1]; strain BX_00326.0 (pJ61-ilvA)): 40%
- % Increase Over Control ([1]; strain BX_00327.0 (pJ61-cysM)): 40%
- % Increase Over Control ([1]; strain BX_00334.0 (pSmart-HC-Amp-cadA)): 60%
- % Increase Over Control ([1]; strain BX_00335.0 (pSmart-HC-Amp-prs)): 40%
- % Increase Over Control ([1]; strain BX_00336.0 (pSmart-HC-Amp-nrdAB)): 40%
- % Increase Over Control ([1]; strain BX_00337.0 (pSmart-HC-Amp-nrdEF)): 40%
- % Increase Over Control ([1]; strain BX_00352.0 (pSmart-LC-Kan-metC C1)): 40%
- % Increase Over Control ([1]; strain BX_00353.0 (pSmart-HC-Amp-metC)): 80%
- % Increase Over Control ([1]; strain BX_00354.0 (pSmart-HC-Amp-cynTS)): 80%
- % Increase Over Control ([1]; strain BX_00356.0 (pSmart-HC-Amp-LysA)): 20%
- % Increase Over Control ([1]; strain BX_00357.0 (pKK223-aroH*445)): 50%
- % Increase Over Control ([1]; strain BX_00358.0 (pKK223-aroH*447)): 75%
- % Increase Over Control ([1]; strain BX_00359.0 (pKK223-aroH*457)): 75%
- % Increase Over Control ([1]; strain BX_00361.0 (pACYC177 (Kan only)-cynTS)): 40%
- % Increase Over Control ([1]; strain BX_00362.0 (pACYC177 (Kan only)-aroH)): 20%
- % Increase Over Control ([1]; strain BX_00363.0 (pACYC177 (kan only)-speB)): 40%
- % Increase Over Control ([1]; strain BX_00364.0 (pACYC177 (Kan only)-metE)): 40%
- % Increase Over Control ([1]; strain BX_00365.0 (pACYC177 (Kan only)-metC)): 40%
- % Increase Over Control ([1]; strain BX_00368.0 (pBT-3-cynTS)): 20%
- % Increase Over Control ([1]; strain BX_00370.0 (pBT-3-speB)): 20%
- MIC [2]: 50 mg/mL (≈ 555 mM)
- % Increase Over Control ([3]; C. necator DSM 542, EZ Rich media): 200%
- % Increase Over Control ([3]; C. necator DSM 542, FGN media): 0%
- MIC ([3]; read-out: average MIC Assay Result (g/L 3-HP), C. necator DSM428, FGN media, supplements none (control), aerobic): 15 g/L (≈ 167 mM)
- MIC ([3]; read-out: average MIC Assay Result (g/L 3-HP), C. necator DSM 542, EZ Rich media, supplements none, aerobic): 60 g/L (≈ 666 mM)
- MIC ([3]; read-out: average MIC Assay Result (g/L 3-HP), C. necator DSM 542, FGN media, supplements none, aerobic): 15 g/L (≈ 167 mM)
- 3-HP concentration in excess of which considerable 3-HP polymerization was observed at neutral pH ([4]; commercial 3-HP (TCI America), ether extracted, neutralized with 10 M NaOH to pH 7.0): approximately 35 g/L
- solubility ([4]; pH 7, aqueous buffer): ~35 mg/mL (≈ 389 mM)

Source: patent US20130122541A1, “MICROORGANISM PRODUCTION OF HIGH-VALUE CHEMICAL PRODUCTS, AND RELATED COMPOSITIONS, METHODS AND SYSTEMS” (The Regents of the University of Colorado, priority 2010, published 2013)
